Assay results reported in patent US8802705B2, “Pharmaceutical containing PPAR delta agonist” (Senju Pharmaceutical Co., Ltd., priority 2007, dated 2014).

Experiments:
Format in all cases: cell-based
[1] = system: monkey meibomian gland epithelial cells; assay: Effect on cell number increase in meibomian gland epithelial cells (Experimental Example 3, Cell Counting Kit-8); details: medium renewed every 48 hr (3 x 48 hr), relative to non-addition group = 100%, mean ± SD, N = 5 or 10
Description: An eyelid of monkey isolated and stored in D-PBS was transferred to a clean bench, and cell preparation was aseptically performed as follows.
The isolated eyelid was immersed in 80% ethanol for 30 sec, washed three times with D-PBS added with 1% penicillin-streptomycin (Invitrogen), and transferred to a minimum essential medium (MEM; Invitrogen). The adipose tissue and muscular tissue surrounding the meibomian glandular tissue of the eyelid were removed under a stereomicroscope. They were transferred to MEM containing 0.3 U/mL collagenase A (Roche Diagnostics) and 2.4 U/mL dispase II (Roche Diagnostics), and shaken at 37° C. for 4 hr and at 4° C. overnight. The enzyme-treated tissue was set under a stereomicroscope, and the eyelash and eyelid connective tissue were removed to isolate the meibomian glandular tissue. Trypsin-EDTA (4 mL, Invitrogen) was added to the isolated glandular tissue, and the mixture was incubated at 37° C. for 10 min. After incubation, MEM (5 mL) containing 10% FBS (Invitrogen) was added thereto to stop the enzyme reaction, and the tissue constituting cells were dispersed by repeated suction and discharge of the mixture 5 times using an injection syringe equipped with a 21 G injection needle. The cell dispersion was passed through 100 μm and 40 μm nylon filters (Cell Strainer; Falcon), and cell mass and the like contained therein which could not be treated with the enzyme were removed. The cell suspension passed through the filters was collected in a centrifuge tube (50 mL) and centrifuged at room temperature, 1,500 rpm for 5 min. To the cell layers containing the object cells obtained by the centrifugation was added 80 μL of D-PBS containing 0.5% bovine serum albumin (BSA; Sigma-Aldrich), and the cells were sufficiently suspended therein. Anti-Fibroblast Microbeads (Militenyi Biotec, 20 μL) was added thereto, and the mixture was left standing at room temperature for 30 min. After completion of the reaction with an antibody, 2 mL of D-PBS containing 0.5% BSA was added thereto, and the mixture was centrifuged again at room temperature, 1,500 rpm for 5 min. To the cell layers containing the object cells obtained by the centrifugation was added 1 mL of D-PBS containing 0.5% BSA, and the cells were sufficiently suspended therein. The suspension was added dropwise to LD column (Militenyi Biotec) equilibrated in advance with a column washing solution (D-PBS containing 2 mM EDTA (DOJINDO LABORATORIES) and 0.5% BSA). Then, 2 mL of the column washing solution was added dropwise to the LD column. […] The cells collected in the centrifuge tube were centrifuged at room temperature, 1,500 rpm for 5 min, and the supernatant was removed. The sediment was suspended in Defined Keratinocyte Serum Free Medium (5 mL), centrifuged at room temperature, 1,500 rpm for 5 min, and removed the supernatant. Again, the residue was suspended in DK-SFM (3 mL), centrifuged at room temperature and 1,500 rpm for 5 min, and the supernatant was removed. The cells were suspended in DK-SFM (2 mL), and seeded on a 6 well multi-well plate for cell culture, which had been treated with collagen. The seeded cells were cultured in Defined keratinocyte-Serum Free Medium (DK-SFM; Invitrogen, attached Supplement was added as instructed in the preparation protocol), cultured in an incubator (SANYO) set to 37° C., 5% CO2, 95% air, 100% humidity, and the culture medium was exchanged with a new one every 48 hr until the cells became subconfluent.
As a test substance, compound A, [4-[3-[2-(4-trifluoromethyl)phenyl-4-isopropyl-5-thiazolyl]propionyl]-2-methylphenoxy]acetic acid (hereinafter to be referred to as compound B) or [4-[3-[2-(2-hydroxy-4-chlorophenyl)-5-isopropyl-4-oxazolyl]propionyl]-2-methylphenoxy]acetic acid (hereinafter to be referred to as compound C) was used. […]

[2] = system: Normal human corneal epithelial cells; assay: Effect on increase of cell number of normal human corneal epithelial cells (Experimental Example 4, Cell Counting Kit-8); details: for effect on cell number of normal human corneal epithelial cells (in words): 0.01-1 μM, conclusion of the test; for cell number increase rate: relative to non-addition group = 100%, mean ± SD, N = 4
Description: (§1) Normal human corneal epithelial cells (KURABO) were used.
As a test substance, compound B or compound C was used. Compound B and compound C were each dissolved in ethanol (Wako Pure Chemical Industries, Ltd.) to a concentration 200-fold of the final concentration in a culture medium, and the solution was stored at −80° C. until immediately before use.
As a cell culture medium for consideration of the cell number-increasing effect by compound B and compound C, a culture medium (basal medium) obtained by adding insulin, hydrocortisone and transferrin contained in HCGS growth additive set (KURABO) to EpiLife (KURABO) was used.
Normal human corneal epithelial cells cryopreserved in liquid nitrogen were thawed and the cell number was counted. The total amount thereof was transferred to EpiLife added with all of the HCGS growth additive set (insulin, epidermal growth factor mEGF derived from mouse, hydrocortisone, transferrin, bovine brain hypophysis extract) (4 mL, complete medium), and suspended well therein. The cell suspension was seeded on a fibronectin-coated 24 well plate (Becton Dickinson) at a cell number of 2×10^4 cells/500 μL/well (1×10^4 cells/cm^2 since bottom area was 2 cm^2). After completion of cell seeding, the culture plate was incubated in an incubator set to 37° C., 5% CO2, 95% air and 100% humidity for 24 hr, and the culture medium was changed to 400 μL of the basal medium (EpiLife added with insulin, hydrocortisone and transferrin from HCGS growth additives). After 24 hr thereafter, the culture medium was changed to the following culture medium (each 400 μL). • [1] basal medium alone (non-addition group) • [2] basal medium+mEGF (final concentration: 1 ng/mL; positive control group) • [3] basal medium+compound B (final concentration: 0.01 μM, 0.1 μM, 1 μM; compound B addition group) • [4] basal medium+compound C (final concentration: 0.01 μM, 0.1 μM, 1 μM; compound C addition group)
(§2) Ethanol (5 μL) was added to 1 mL each of culture media and [2] to uniformly set the ethanol concentration of all culture media to 0.5%.
(§3) After 24 hr from the start of the stimulation with compound B or compound C, the culture supernatant was removed from each well, and a basal medium added with 10% Cell Counting Kit-8 (DOJINDO) was dispensed to each well by 200 μL. After dispensing, the culture plate was transferred to an incubator set to 37° C., 5% CO2, 95% air and 100% humidity and incubated for 2 hr. The supernatant (100 μL) was transferred to a 96 well culture plate for tissue culture (Corning), and the absorbance of each well at 450 nm was measured with a microplate reader (Dainippon Sumitomo Pharma Co., Ltd.), and used as an index of cell number increase.
(§4) The values of the positive control group and the compound B or compound C addition group were calculated based on the average absorbance of the non-addition group as 100%, and the non-addition group was compared with the compound B or compound C addition group and positive control group according to the Dunnett multiple comparison test (one-tailed). A critical value of less than 5% as a result of the test was judged as significant.

[3] = system: Normal human corneal epithelial cells; assay: Effect on increase of cell number of normal human corneal epithelial cells (Experimental Example 1, Cell Counting Kit-8); details: positive control, final concentration 1 ng/mL, 24 hr, relative to non-addition group = 100%, mean ± SD
Description: as §1
As a test substance, [3-[2-[4-isopropyl-2-(4-trifluoromethyl)phenyl-5-thiazolyl]ethyl]-5-methyl-1,2-benzisoxazol-6-yl]oxyacetic acid (hereinafter to be referred to as compound A) was used. Compound A was dissolved in ethanol (Wako Pure Chemical Industries, Ltd.) to a concentration 200-fold of the final concentration in a culture medium, and the solution was stored at −80° C. until immediately before use.
As a cell culture medium for consideration of the cell number-increasing effect by compound A, a culture medium (basal medium) obtained by adding insulin, hydrocortisone and transferrin contained in HCGS growth additive set (KURABO) to EpiLife (KURABO) was used.
Normal human corneal epithelial cells cryopreserved in liquid nitrogen were thawed and the cell number was counted. The total amount thereof was transferred to EpiLife added with all of the HCGS growth additive set (insulin, epidermal growth factor mEGF derived from mouse, hydrocortisone, transferrin, bovine brain hypophysis extract) (4 mL, complete medium), and suspended well therein. The cell suspension was seeded on a fibronectin-coated 24 well plate (Becton Dickinson) at a cell number of 2×10^4 cells/500 μL/well (1×10^4 cells/cm^2 since bottom area was 2 cm^2).
After completion of cell seeding, the culture plate was incubated in an incubator set to 37° C., 5% CO2, 95% air and 100% humidity for 24 hr, and the culture medium was changed to 400 μL of the basal medium (EpiLife added with insulin, hydrocortisone and transferrin from HCGS growth additives).
After 24 hr thereafter, the culture medium was changed to the following culture medium (each 400 μL). • [1] basal medium alone (non-addition group) • [2] basal medium+mEGF (final concentration: 1 ng/mL; positive control group) • [3] basal medium+compound A (final concentration: 0.1 nM, 1 nM, 0.01 μM, 0.1 μM; compound A addition group)
as §2
as §3, with “A,” for “B or compound C,”
as §4, with “A” for “B or compound C”

Row | Compound | cell number increase ratio ([1]; 10^−6 M) | cell number increase ratio ([1]; 10^−7 M) | cell number increase ratio ([1]; 10^−8 M) | effect on cell number of normal human corneal epithelial cells (in words) [2] | cell number increase rate ([2]; 10^−6 M, 24 hr stimulation) | cell number increase rate ([2]; 10^−7 M, 24 hr stimulation) | cell number increase rate ([2]; 10^−8 M, 24 hr stimulation) | cell number increase rate [3] | cell number increase rate ([2]; positive control, final concentration 1 ng/mL, 24 hr)
1 | Cc1cc(C(=O)CCc2sc(-c3ccc(C(F)(F)F)cc3)nc2C(C)C)ccc1OCC(=O)O [compound B, [4-[3-[2-(4-trifluoromethyl)phenyl-4-isopropyl-5-thiazolyl]propionyl]-2-methylphenoxy]acetic acid] | 158.8 ± 15.2% | 174.4 ± 8.9% | 155.0 ± 28.0% | increase the cell number of normal human corneal epithelial cells | 254.3 ± 11.7% | 256.4 ± 11.0% | 252.4 ± 34.7% | – | –
2 | mEGF: epidermal growth factor mEGF derived from mouse, from HCGS growth additive set (KURABO); positive control (NSYPGCPSSYDGYCLNGGVCMHIESLDSYTCNCVIGYSGDRCQTRDLRWWELR; UniProt P01132 977-1029, looked up) [reference compound] | – | – | – | – | – | – | – | 147.5 ± 47.2% | 232.8 ± 22.5%
3 | Cc1cc(C(=O)CCc2nc(-c3ccc(Cl)cc3O)oc2C(C)C)ccc1OCC(=O)O [compound C, [4-[3-[2-(2-hydroxy-4-chlorophenyl)-5-isopropyl-4-oxazolyl]propionyl]-2-methylphenoxy]acetic acid] | 179.4 ± 7.5% | 175.2 ± 7.8% | 155.0 ± 11.6% | increase the cell number of normal human corneal epithelial cells | 260.2 ± 2.5% | 247.5 ± 14.1% | 243.3 ± 6.6% | – | –
